Columns and labels:
Assay type in all cases: physicochemical, human
[1] = LC/MS of serum sample: number of times of freezing and thawing (Table M); set-up: key to Rate of increase or decrease: detection intensity relative to 1 at 2 freeze-thaw cycles; conditions: for Number of times when compound is affected / Increase or decrease: serum sample, LC/MS; for Number of times when compound is affected: detection intensity changed by 30% or more vs 2 times of freezing and thawing; for Increase or decrease: detection intensity vs 2 times of freezing and thawing
Procedure, shortened: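 Serum was isolated at room temperature after centrifugation at room temperature, 3500 rpm, 5 minutes, then frozen and freeze-thawed 2, 4, 6 or 10 times. LC/MS used a Discovery HS F5-3 column at 40° C with formic acid water/acetonitrile, electrospray MRM. Intensity is relative to 2 freeze-thaw cycles.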

[2] = LC/MS of serum sample: time from blood collection to centrifugation (Table J); conditions: for Increase or decrease / Time when compound is affected: serum sample, LC/MS; for Increase or decrease: detection intensity vs 15 minutes from blood collection to centrifugation; for Time when compound is affected: time from blood collection to centrifugation, detection intensity changed by 30% or more vs 15 minutes
Procedure, shortened: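 Serum from blood centrifuged at room temperature, 3500 rpm, 5 min, then frozen; analysed by LC/MS on a Discovery HS F5-3 column at 40 °C. Mobile phase: 0.1% formic acid in water/acetonitrile, 0.25 mL/min, electrospray MRM. Values are intensity relative to a 15 min collection-to-centrifugation time.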

[3] = LC/MS of serum sample: time from centrifugation to isolation (Table K); set-up: key to Rate of increase or decrease: detection intensity relative to the 30-minute value set as 1; conditions: for Rate of increase or decrease: after 6 hours from centrifugation to isolation, detection intensity relative to 1 at 30 minutes; for Increase or decrease / Time when compound is affected: serum sample, LC/MS; for Increase or decrease: detection intensity vs 30 minutes from centrifugation to isolation; for Time when compound is affected: time from centrifugation to isolation, detection intensity changed by 30% or more vs 30 minutes
Procedure, shortened: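 Serum left at room temperature 30 min, 1 h or 6 h between centrifugation (3500 rpm, 5 min, room temperature) and isolation, then frozen and analysed by LC/MS (Discovery HS F5-3 column, 40° C., 0.1% formic acid water/acetonitrile, electrospray, MRM). Values are detection intensity relative to the 30-min condition set to 1.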

[4] = LC/MS of blood plasma sample: number of times of freezing and thawing (Table F); conditions: for Rate of increase or decrease: detection intensity relative to 1 at 2 times; for Increase or decrease: detection intensity
Procedure, shortened: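 Human blood from a healthy subject drawn into EDTA tubes, cooled to 4° C within 1 min or after ≥5 min, centrifuged at 4° C, 3000 rpm, 15 min. Plasma frozen, then freeze-thawed 2, 4, 6 or 10 times and analysed by LC/MS (ESI, MRM). Intensities expressed relative to 2 freeze-thaw cycles set as 1.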

[5] = LC/MS of blood plasma sample: time from blood collection to cooling of blood (Table E); set-up: key to Rate of increase or decrease / Rate of increase or decrease (first value, increase): detection intensity relative to ≤1 min to cooling = 1; conditions: for Rate of increase or decrease: detection intensity relative to 1 at 1 minute or less, blood collection to cooling 5 minutes; for Increase or decrease: detection intensity, blood collection to cooling 5 minutes or more vs 1 minute or less
[6] = GC/MS of serum sample: number of times of freezing and thawing (Table I); set-up: key to Rate of increase or decrease / Rate of increase or decrease (first value, increase): detection intensity relative to 2 freeze-thaw cycles = 1
Procedure, shortened: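 Serum was isolated after centrifugation at room temperature (3500 rpm, 5 min), frozen, and put through 2, 4, 6 or 10 freeze–thaw cycles. Samples were methoxymated and trimethylsilylated, then run by electron-ionization GC/MS in MRM mode on a BPX5 column (60 to 330 °C). Detection intensity is given relative to the 2-cycle sample, set as 1.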

[7] = GC/MS of serum sample: time from centrifugation to isolation (Table H); set-up: key to Rate of increase or decrease / Rate of increase or decrease (first value, increase): detection intensity relative to 1 at 30 min centrifugation-to-isolation; conditions: for Rate of increase or decrease: detection intensity relative to 1 at 30 minutes; for Increase or decrease: detection intensity
Procedure, shortened: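 Blood was centrifuged at room temperature, 3500 rpm, 5 min, and the vessel left at room temperature for 30 min, 1 h or 6 h before serum isolation. Serum was methoxymated, trimethylsilylated and analysed by GC/MS with electron ionization in MRM mode; intensities expressed relative to the 30-min condition (=1).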

[8] = 4 times of freezing and thawing, relative to 1 at 2 times, different from individual to individual, first value (increase)
[9] = 4 times of freezing and thawing, relative to 1 at 2 times, different from individual to individual, second value (decrease)
[10] = after 4 hours from blood collection to centrifugation, detection intensity relative to 1 at 15 minutes
[11] = freezing and thawing 4 times vs 2 times

| SMILES | Rate of increase or decrease [1, 8] | Rate of increase or decrease [1, 9] | Number of times when compound is affected [1] [times] | Increase or decrease [1] | Rate of increase or decrease [2, 10] | Increase or decrease [2] | Time when compound is affected [2] | Rate of increase or decrease [3] | Increase or decrease [3] | Time when compound is affected [3] | Rate of increase or decrease ([4]; freezing and thawing 4 times) | Increase or decrease [4, 11] | Rate of increase or decrease [5] | Increase or decrease [5] | Rate of increase or decrease ([7]; after 1 hour) | Increase or decrease ([7]; after 1 hour vs 30 minutes) | other results |
| --- | --- | --- | --- | --- | --- | --- | --- | --- | --- | --- | --- | --- | --- | --- | --- | --- | --- |
| O=c1[nH]c(=O)c2[nH]cnc2[nH]1 [Xanthine] | 1.37 | 0.70 | 4 | Different from individual | 1.92 | Increase | After 4 hours | 2.50 | Increase | After 6 hours | 1.77 | Increase | 1.47 | Increase | – | – | – |
| CC(C)(CO)[C@@H](O)C(=O)NCCC(=O)O [Pantothenic acid] | – | – | 10 | Decrease | – | Increase | After 12 hours | – | – | – | – | – | – | – | 0.66 | Decrease | Rate of increase or decrease ([1]; 10 times of freezing and thawing, detection intensity relative to 1 at 2 times): 0.55; Rate of increase or decrease ([2]; after 12 hours from blood collection to centrifugation, detection intensity relative to 1 at 15 minutes): 1.43; Rate of increase or decrease ([6]; detection intensity relative to 1 at 2 times, serum, GC/MS, freezing and thawing 4 times): 1.39; Increase or decrease ([6]; detection intensity, serum, GC/MS, freezing and thawing 4 times vs 2 times): Increase; Rate of increase or decrease ([4]; freezing and thawing 10 times): 1.43; Increase or decrease ([4]; freezing and thawing 10 times vs 2 times): Increase |
| NC(=O)NC1NC(=O)NC1=O (centres unmarked) [Allantoin] | – | – | 4 | Increase | – | Different from individual | After 4 hours | 10.46 | Increase | After 6 hours | 0.55 | Decrease | – | Different from individual | – | – | Rate of increase or decrease ([1]; 4 times of freezing and thawing, detection intensity relative to 1 at 2 times): 3.27; Rate of increase or decrease ([2]; after 4 hours, relative to 1 at 15 minutes, different from individual to individual, first value (increase)): 1.78; Rate of increase or decrease ([2]; after 4 hours, relative to 1 at 15 minutes, different from individual to individual, second value (decrease)): 0.40; Rate of increase or decrease ([6]; detection intensity relative to 1 at 2 times, serum, GC/MS, freezing and thawing 10 times): 2.94; Increase or decrease ([6]; detection intensity, serum, GC/MS, freezing and thawing 10 times vs 2 times): Increase; Rate of increase or decrease ([7]; after 6 hours): 3.00; Increase or decrease ([7]; after 6 hours vs 30 minutes): Increase; Rate of increase or decrease (second value, decrease) ([5]; different from individual to individual, individuals with decrease, relative to 1 at 1 minute or less, collection to cooling 5 minutes): 0.40; Rate of increase or decrease (first value, increase) ([5]; different from individual to individual, individuals with increase, relative to 1 at 1 minute or less, collection to cooling 5 minutes): 1.57 |
| O=c1[nH]cnc2nc[nH]c12 [Hypoxanthine] | 1.35 | 0.61 | 4 | Different from individual | 2.24 | Increase | After 4 hours | 2.78 | Increase | After 6 hours | – | – | 7.92 | Increase | 1.36 | Increase | Rate of increase or decrease ([6]; 10 times of freezing and thawing, relative to 1 at 2 times, different from individual to individual, first value (increase)): 1.47; Rate of increase or decrease ([6]; 10 times of freezing and thawing, relative to 1 at 2 times, different from individual to individual, second value (decrease)): 0.66; Number of times when compound is affected ([6]; serum sample, GC/MS, detection intensity changed by 30% or more vs 2 times of freezing and thawing): 10 times; Increase or decrease ([6]; serum sample, GC/MS, detection intensity vs 2 times of freezing and thawing): Different from individual; Rate of increase or decrease ([4]; freezing and thawing 6 times): 2.04; Increase or decrease ([4]; freezing and thawing 6 times vs 2 times): Increase |

Reference: US20220146526A1, “METHOD FOR EVALUATING SAMPLE, ANALYSIS METHOD, METHOD FOR DETECTING DEGRADED SAMPLE, MARKER FOR DETECTING DEGRADED BLOOD PLASMA SAMPLE, AND MARKER FOR DETECTING DEGRADED SERUM SAMPLE” (SHIMADZU CORPORATION, priority 2019, published 2022)
